Test: octanol-water partition coefficient (Log P value)
Format: physicochemical
Settings: octanol-water distribution coefficient
Excerpt: In the preparation of the cellulose acylate film according to the invention, among the aforementioned compound for suppressing an alignment of cellulose acylate in the film along the in-plane direction and the direction of film thickness thereby sufficiently reducing Rth, preferred is a compound having an octanol-water distribution coefficient (log P value) within a range of from 0 to 7. […] Also, a compound having a log P value or 0 or more has a lower hydrophilicity and thus can suppress deterioration of the water resistance of the cellulose acylate film. The log P value is more preferably within a range of from 1 to 6, and particularly preferably 1.5 to 5. The octanol-water distribution coefficient (log P value) can be measured by a flask […] method described in Japan Industrial Standards (JIS) Z7260-107 (2000). The octanol-water distribution coefficient (log P value) may also be estimated, instead of an actual measurement, by a calculational chemical method or an empirical method. […]

logP	SMILES
5.6	CCCCCCCCOc1ccc(C(=O)c2ccccc2)c(O)c1 [UV-102]
2.9	Cc1ccc(S(=O)(=O)Nc2ccccc2)cc1 [A-19]

Source: US7505101B2, “Liquid crystal display” (Fujifilm Corporation, priority 2004, dated 2009)
